Assay results: patent US8937089B2, “Synergistic mixtures of anthranilamide invertebrate pest control agents” (priority 2004, dated 2015)

Legend:
Type in all cases: in vivo
[1] = tested on: silverleaf whitefly (Bemisia argentifolii Bellows and Perring); assay: whole plant or invertebrate; details: Table 2B
Procedure, shortened: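 Whitefly-egg-infested 12–14-day-old cotton plants sprayed with compound in 10% acetone/90% water plus 300 ppm non-ionic surfactant, in triplicate. Plants then held 13 days at 28 °C and 50–70% relative humidity before mortality assessment.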

[2] = tested on: western flower thrip (Frankliniella occidentalis Pergande); assay: whole plant or invertebrate; details: single compound, spray, 7 days
Procedure, shortened: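 Bean plants aged 5–7 days received a spray of test solution (10% acetone, 90% water, 300 ppm surfactant), in triplicate. Adult thrips (22–27 per unit) were introduced once the plants had dried for 1 h. Incubation lasted 7 days at 25° C and 45–55% RH.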

[3] = tested on: potato leafhopper (Empoasca fabae Harris); assay: whole plant or invertebrate; details: alone
Procedure, shortened: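 Contact and/or systemic test: five adult leafhoppers aged 18–21 days were released onto Longio bean plants 1 h after spraying. The spray was 1 mL per unit in acetone/water (10:90) with 300 ppm non-ionic surfactant, run in triplicate. Plants were kept 6 days in a growth chamber at 19–21 °C and 50–70% humidity.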

[4] = tested on: corn planthopper (Peregrines maidis); assay: whole plant or invertebrate; details: Corn Plant Hopper
Procedure, shortened: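 Contact/systemic test on corn planthopper: 10–20 nymphs (18- to 20-day-old) released onto young maize plants 1 h after spraying, with three replicate units per treatment. Spray solution was acetone/water 10:90 containing 300 ppm non-ionic spreader; units kept 6 days at 19-21° C., 50-70% RH.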

[5] = tested on: cotton melon aphid (Aphis gossypii Glover); assay: whole plant or invertebrate
Procedure, shortened: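 Sprays in acetone–water with 300 ppm non-ionic surfactant, at ppm concentrations, applied to aphid-infested (30–40 per plant) 6–7-day cotton, in triplicate. Evaluation after 6 days in a growth chamber at 19–21 °C and 50–70% relative humidity, covering contact and/or systemic action.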

[6] = tested on: green peach aphid (Myzus persicae Sulzer); assay: whole plant or invertebrate; details: Green Peach Aphid
Procedure, shortened: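 Compounds formulated in 10% acetone/water with 300 ppm X-77 surfactant were atomized onto aphid-infested radish seedlings, with three replicates per treatment. Infestation was 30–40 aphids transferred on excised leaf pieces, covering contact and systemic exposure. Test units stayed 6 days in a growth chamber at 19–21 °C and 50–70% relative humidity.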

[7] = tested on: diamondback moth (Plutella xylostella); assay: whole plant or invertebrate
Procedure: The test compounds were dissolved in water. […] Serial dilutions were made to obtain the appropriate concentrations. To obtain the desired mixture concentrations of each compound, twice the desired concentration of each of the two mixture partner compounds were mixed together in equal volumes.
The diluted solutions of the test compounds were sprayed to run-off on three-week-old tomato plants. The plants were placed on a rotating turntable sprayer (10 rpm). Test solutions were applied using a flat fan air-assisted nozzle (Spraying Systems 122440) at 10 psi (69 kPa). […] The leaves were cut into pieces, which were placed singly into 5.5 cm-by-3.5 cm cells of a sixteen-cell plastic tray. Each cell contained a 2.5-cm square of moistened chromatography paper to prevent desiccation. One insect was placed in each cell. There two trays per treatment. Trays were held in the growth chamber at 25° C., 16-hour light:8-hour dark, 60% relative humidity for 4 days.
For evaluating control of diamondback moth (Plutella xylostella), cabbage (var. Stonehead) plants were grown in Metromix potting soil in 10-cm pots in aluminum trays to test size (28 days, 3-4 full leaves) the plants were sprayed to the point of runoff using the turntable sprayer as described in Test I. Test compounds were formulated and sprayed on test plants as described for Test I. After drying for 2 hours, the treated leaves were excised and infested with one cabbage looper per cell and covered. The test units were placed on trays and put in a growth chamber at 25° C. and 60% relative humidity for 4 days.

[8] = tested on: beet armyworm (Spodoptera exigua); assay: Test I: control of beet armyworm, spray on tomato plants, excised leaves, % mortality and % feeding at 72 hours
Procedure: For evaluating control of beet armyworm (Spodoptera exigua), methomyl was in the liquid formulation as Lannate® LV (29% of active ingredient). Compound 1 was in a water dispersible granules (WDG) formulation with 35% active ingredient. The test compounds were dissolved in water. Enough water was added to make 100 ppm of active ingredient for each compound. Serial dilutions were made to obtain the appropriate concentrations. To obtain the desired mixture concentrations of each compound, twice the desired concentration of each of the two mixture partner compounds were mixed together in equal volumes.
The diluted solutions of the test compounds were sprayed to run-off on three-week-old tomato plants. The plants were placed on a rotating turntable sprayer (10 rpm). Test solutions were applied using a flat fan air-assisted nozzle (Spraying Systems 122440) at 10 psi (69 kPa). After each treated plant had dried, leaves were excised from the treated plant. The leaves were cut into pieces, which were placed singly into 5.5 cm-by-3.5 cm cells of a sixteen-cell plastic tray. Each cell contained a 2.5-cm square of moistened chromatography paper to prevent desiccation. One insect was placed in each cell. There two trays per treatment. […]

N#CCNC(=O)c1cnccc1C(F)(F)F [Flonicamid]
% mortality (obs) ([1]; rate 0.1 ppm): 2% | % mortality (obs) ([1]; rate 0.2 ppm): 2% | % mortality (obs) ([1]; rate 0.5 ppm): 2% | % mortality (obs) ([2]; rate 10 ppm): 20% | % mortality (obs) ([2]; rate 100 ppm): 80% | % mortality (obs) ([2]; rate 1000 ppm): 70% | % mortality (obs) ([3]; rate 100 ppm): 100% | % mortality (obs) ([3]; rate 400 ppm): 100% | % mortality (obs) ([3]; rate 1000 ppm): 40% | % mortality (obs) ([4]; rate 2 ppm): 52% | % mortality (obs) ([4]; rate 15 ppm): 42% | % mortality (obs) ([4]; rate 150 ppm): 90% | % mortality (obs) ([5]; rate 0.2 ppm): 9% | % mortality (obs) ([5]; rate 1 ppm): 46% | % mortality (obs) ([5]; rate 5 ppm): 92% | % mortality (obs) ([6]; rate 0.1 ppm): 16% | % mortality (obs) ([6]; rate 0.2 ppm): 10% | % mortality (obs) ([6]; rate 2 ppm): 33% | % mortality (obs) ([7]; rate 1 ppm): 0% | % mortality (obs) ([7]; rate 15 ppm): 60% | % mortality (obs) ([7]; rate 1000 ppm): 30%

CNC(=O)ON=C(C)SC [Methomyl]
% mortality (obs) ([1]; rate 10 ppm): 4% | % mortality (obs) ([1]; rate 100 ppm): 3% | % mortality (obs) ([1]; rate 1000 ppm): 6% | % mortality (obs) ([2]; rate 30 ppm): 60% | % mortality (obs) ([2]; rate 100 ppm): 60% | % mortality (obs) ([2]; rate 300 ppm): 100% | % mortality (obs) ([3]; rate 1 ppm): 0% | % mortality (obs) ([3]; rate 2 ppm): 53% | % mortality (obs) ([3]; rate 5 ppm): 100% | % mortality (obs) ([4]; rate 0.5 ppm): 5% | % mortality (obs) ([4]; rate 1 ppm): 21% | % mortality (obs) ([4]; rate 2 ppm): 19% | % mortality (obs) ([5]; rate 2 ppm): 11% | % mortality (obs) ([5]; rate 5 ppm): 35% | % mortality (obs) ([5]; rate 15 ppm): 64% | % mortality (obs) ([6]; rate 50 ppm): 20% | % mortality (obs) ([6]; rate 100 ppm): 61% | % mortality (obs) ([6]; rate 200 ppm): 100% | % feeding ([8]; Methomyl 5.22 ppm): 17% | % mortality (observed) ([8]; Methomyl 5.22 ppm): 6% | % feeding ([8]; Methomyl 10.9 ppm): 29% | % mortality (observed) ([8]; Methomyl 10.9 ppm): 10% | % feeding ([8]; Methomyl 16.3 ppm): 9% | % mortality (observed) ([8]; Methomyl 16.3 ppm): 44% | % feeding ([8]; Methomyl 20.6 ppm): 10% | % mortality (observed) ([8]; Methomyl 20.6 ppm): 16% | % feeding ([8]; Methomyl 37.8 ppm): 3% | % mortality (observed) ([8]; Methomyl 37.8 ppm): 44% | % feeding ([8]; Methomyl 100 ppm): 0% | % mortality (observed) ([8]; Methomyl 100 ppm): 84% | % mortality (obs) ([7]; rate 30 ppm): 80% | % mortality (obs) ([7]; rate 40 ppm): 90% | % mortality (obs) ([7]; rate 50 ppm): 80%

Dieldrin
% mortality (obs) ([1]; rate 10 ppm): 0% | % mortality (obs) ([1]; rate 100 ppm): 0% | % mortality (obs) ([1]; rate 1000 ppm): 0% | % mortality (obs) ([2]; rate 10 ppm): 10% | % mortality (obs) ([2]; rate 100 ppm): 20% | % mortality (obs) ([2]; rate 1000 ppm): 30% | % mortality (obs) ([3]; rate 2.5 ppm): 27% | % mortality (obs) ([3]; rate 5 ppm): 100% | % mortality (obs) ([3]; rate 10 ppm): 100% | % mortality (obs) ([4]; rate 0.1 ppm): 37% | % mortality (obs) ([4]; rate 0.2 ppm): 57% | % mortality (obs) ([4]; rate 0.3 ppm): 71% | % mortality (obs) ([5]; rate 1 ppm): 13% | % mortality (obs) ([5]; rate 5 ppm): 26% | % mortality (obs) ([5]; rate 50 ppm): 66% | % mortality (obs) ([6]; rate 10 ppm): 59% | % mortality (obs) ([6]; rate 100 ppm): 43% | % mortality (obs) ([6]; rate 1000 ppm): 41% | % mortality (obs) ([7]; rate 2 ppm): 90% | % mortality (obs) ([7]; rate 2.5 ppm): 100% | % mortality (obs) ([7]; rate 3 ppm): 100%

Pyridaben
% mortality (obs) ([1]; rate 20 ppm): 21% | % mortality (obs) ([1]; rate 30 ppm): 55% | % mortality (obs) ([1]; rate 50 ppm): 73% | % mortality (obs) ([2]; rate 10 ppm): 30% | % mortality (obs) ([2]; rate 80 ppm): 50% | % mortality (obs) ([2]; rate 200 ppm): 60% | % mortality (obs) ([3]; rate 1 ppm): 0% | % mortality (obs) ([3]; rate 2.5 ppm): 13% | % mortality (obs) ([3]; rate 10 ppm): 100% | % mortality (obs) ([4]; rate 2 ppm): 10% | % mortality (obs) ([4]; rate 2.5 ppm): 2% | % mortality (obs) ([4]; rate 3 ppm): 2% | % mortality (obs) ([5]; rate 1 ppm): 11% | % mortality (obs) ([5]; rate 2 ppm): 15% | % mortality (obs) ([5]; rate 10 ppm): 71% | % mortality (obs) ([6]; rate 1 ppm): 100% | % mortality (obs) ([6]; rate 10 ppm): 14% | % mortality (obs) ([6]; rate 60 ppm): 60% | % mortality (obs) ([7]; rate 100 ppm): 100% | % mortality (obs) ([7]; rate 150 ppm): 80% | % mortality (obs) ([7]; rate 200 ppm): 100%

Spinosad
% mortality (obs) ([1]; rate 100 ppm): 66% | % mortality (obs) ([1]; rate 150 ppm): 69% | % mortality (obs) ([1]; rate 300 ppm): 95% | % mortality (obs) ([2]; rate 0.1 ppm): 20% | % mortality (obs) ([2]; rate 0.5 ppm): 60% | % mortality (obs) ([2]; rate 3 ppm): 90% | % mortality (obs) ([3]; rate 30 ppm): 73% | % mortality (obs) ([3]; rate 100 ppm): 80% | % mortality (obs) ([3]; rate 110 ppm): 47% | % mortality (obs) ([4]; rate 5 ppm): 100% | % mortality (obs) ([4]; rate 10 ppm): 100% | % mortality (obs) ([4]; rate 20 ppm): 100% | % mortality (obs) ([5]; rate 10 ppm): 16% | % mortality (obs) ([5]; rate 100 ppm): 35% | % mortality (obs) ([5]; rate 1000 ppm): 30% | % mortality (obs) ([6]; rate 10 ppm): 25% | % mortality (obs) ([6]; rate 100 ppm): 46% | % mortality (obs) ([6]; rate 1000 ppm): 59% | % mortality (obs) ([7]; rate 10 ppm): 100% | % mortality (obs) ([7]; rate 100 ppm): 90% | % mortality (obs) ([7]; rate 1000 ppm): 100%

Thiamethoxam
% mortality (obs) ([1]; rate 5 ppm): 15% | % mortality (obs) ([1]; rate 15 ppm): 78% | % mortality (obs) ([1]; rate 30 ppm): 92% | % mortality (obs) ([2]; rate 5 ppm): 20% | % mortality (obs) ([2]; rate 50 ppm): 80% | % mortality (obs) ([2]; rate 250 ppm): 90% | % mortality (obs) ([3]; rate 0.1 ppm): 80% | % mortality (obs) ([3]; rate 0.2 ppm): 100% | % mortality (obs) ([3]; rate 0.4 ppm): 100% | % mortality (obs) ([4]; rate 0.2 ppm): 100% | % mortality (obs) ([4]; rate 0.4 ppm): 100% | % mortality (obs) ([4]; rate 0.6 ppm): 100% | % mortality (obs) ([5]; rate 0.2 ppm): 24% | % mortality (obs) ([5]; rate 0.4 ppm): 48% | % mortality (obs) ([5]; rate 0.6 ppm): 66% | % mortality (obs) ([6]; rate 0.2 ppm): 35% | % mortality (obs) ([6]; rate 0.4 ppm): 94% | % mortality (obs) ([6]; rate 0.6 ppm): 100% | % mortality (obs) ([7]; rate 30 ppm): 90% | % mortality (obs) ([7]; rate 40 ppm): 100% | % mortality (obs) ([7]; rate 50 ppm): 100%
